Measured values published in patent US11396502B2, “Substituted heterocyclic derivatives as PI3K inhibitors” (Incyte Corporation, priority 2018, dated 2022).
Counter-ions that a name gives are not always drawn. Like-named read-outs stand apart in the source and are kept apart here.

Key:
[1] = molecular target: PI3Kγ (p110γ) (Homo sapiens (Human), UniProt P48736); assay: PI3K-γ scintillation proximity assay; format: biochemical; details: recombinant human PI3Kγ 13 nM, 20 μM PIP2, 2 μM ATP, 120 min, room temperature
Chain of PI3Kγ (p110γ) (P48736 whole entry): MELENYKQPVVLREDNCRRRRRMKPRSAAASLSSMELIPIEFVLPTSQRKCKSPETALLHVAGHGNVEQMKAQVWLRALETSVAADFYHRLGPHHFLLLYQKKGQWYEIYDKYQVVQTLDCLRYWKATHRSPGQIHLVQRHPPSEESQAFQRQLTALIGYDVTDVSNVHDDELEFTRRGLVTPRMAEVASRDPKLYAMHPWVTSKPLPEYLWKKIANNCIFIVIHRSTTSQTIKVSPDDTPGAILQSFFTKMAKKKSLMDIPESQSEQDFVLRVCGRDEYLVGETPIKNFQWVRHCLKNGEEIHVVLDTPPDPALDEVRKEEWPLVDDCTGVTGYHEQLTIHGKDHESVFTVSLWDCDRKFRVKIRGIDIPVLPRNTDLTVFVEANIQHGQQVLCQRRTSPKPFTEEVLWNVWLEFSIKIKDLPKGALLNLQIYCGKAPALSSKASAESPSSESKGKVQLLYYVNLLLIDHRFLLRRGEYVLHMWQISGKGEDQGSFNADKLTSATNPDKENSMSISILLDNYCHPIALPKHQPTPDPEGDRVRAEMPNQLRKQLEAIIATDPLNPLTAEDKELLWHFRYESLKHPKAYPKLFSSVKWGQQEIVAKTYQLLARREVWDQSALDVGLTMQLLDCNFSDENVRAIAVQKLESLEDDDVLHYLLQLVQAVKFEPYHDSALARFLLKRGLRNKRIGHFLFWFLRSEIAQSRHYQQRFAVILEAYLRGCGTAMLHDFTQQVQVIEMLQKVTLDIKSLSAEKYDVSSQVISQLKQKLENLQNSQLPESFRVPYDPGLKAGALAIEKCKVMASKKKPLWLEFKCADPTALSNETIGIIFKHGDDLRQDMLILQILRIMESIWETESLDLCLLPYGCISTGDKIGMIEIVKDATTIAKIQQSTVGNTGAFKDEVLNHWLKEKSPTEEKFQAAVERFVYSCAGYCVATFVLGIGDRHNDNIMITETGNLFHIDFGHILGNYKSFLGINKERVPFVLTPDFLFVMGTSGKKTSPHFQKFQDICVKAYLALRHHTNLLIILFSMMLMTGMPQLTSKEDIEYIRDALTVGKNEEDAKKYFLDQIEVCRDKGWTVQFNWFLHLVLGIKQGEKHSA
How it was run: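 Recombinant human p110γ (13 nM) with 20 μM PIP2, 2 μM ATP plus [γ-33P]ATP in 20 mM MOPS pH 6.7, 10 mM MgCl2, 5 mM DTT, 0.03% CHAPS, 2% DMSO. Reaction ran 120 min at room temperature, then was quenched with EDTA and read with WGA SPA beads. IC50 came from percent-of-solvent-control curves.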

[2] = test system: Phosphorylated Ribosomal Protein S6 (RPS6) in THP-1 cells; assay: THP-1 RPS6 ELISA assay; format: cell-based, Human; details: 2 hours compound, 10 nM MCP-1 for 15 minutes, Phospho-RPS6 ELISA, read-out: PI3Kγ_THP1_RPS6_ELISA IC50
How it was run: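 Serum-starved THP-1 cells (2×10^5/well, RPMI) preincubated with compound 2 h at 37° C, then stimulated with 10 nM MCP-1 for 15 min. Lysates assayed by phospho-RPS6 ELISA, absorbance 450 nm (540 nm correction); IC50 from percent inhibition versus log concentration.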

[3] = molecular target: PI3Kδ (p110δ/p85α) (Homo sapiens (Human), UniProt O00329); assay: PI3Kδ scintillation proximity assay; format: biochemical; details: recombinant human PI3Kδ 3.4 nM, 20 μM PIP2, 2 μM ATP, 120 min, room temperature
Chain of PI3Kδ (p110δ/p85α) (O00329 whole entry): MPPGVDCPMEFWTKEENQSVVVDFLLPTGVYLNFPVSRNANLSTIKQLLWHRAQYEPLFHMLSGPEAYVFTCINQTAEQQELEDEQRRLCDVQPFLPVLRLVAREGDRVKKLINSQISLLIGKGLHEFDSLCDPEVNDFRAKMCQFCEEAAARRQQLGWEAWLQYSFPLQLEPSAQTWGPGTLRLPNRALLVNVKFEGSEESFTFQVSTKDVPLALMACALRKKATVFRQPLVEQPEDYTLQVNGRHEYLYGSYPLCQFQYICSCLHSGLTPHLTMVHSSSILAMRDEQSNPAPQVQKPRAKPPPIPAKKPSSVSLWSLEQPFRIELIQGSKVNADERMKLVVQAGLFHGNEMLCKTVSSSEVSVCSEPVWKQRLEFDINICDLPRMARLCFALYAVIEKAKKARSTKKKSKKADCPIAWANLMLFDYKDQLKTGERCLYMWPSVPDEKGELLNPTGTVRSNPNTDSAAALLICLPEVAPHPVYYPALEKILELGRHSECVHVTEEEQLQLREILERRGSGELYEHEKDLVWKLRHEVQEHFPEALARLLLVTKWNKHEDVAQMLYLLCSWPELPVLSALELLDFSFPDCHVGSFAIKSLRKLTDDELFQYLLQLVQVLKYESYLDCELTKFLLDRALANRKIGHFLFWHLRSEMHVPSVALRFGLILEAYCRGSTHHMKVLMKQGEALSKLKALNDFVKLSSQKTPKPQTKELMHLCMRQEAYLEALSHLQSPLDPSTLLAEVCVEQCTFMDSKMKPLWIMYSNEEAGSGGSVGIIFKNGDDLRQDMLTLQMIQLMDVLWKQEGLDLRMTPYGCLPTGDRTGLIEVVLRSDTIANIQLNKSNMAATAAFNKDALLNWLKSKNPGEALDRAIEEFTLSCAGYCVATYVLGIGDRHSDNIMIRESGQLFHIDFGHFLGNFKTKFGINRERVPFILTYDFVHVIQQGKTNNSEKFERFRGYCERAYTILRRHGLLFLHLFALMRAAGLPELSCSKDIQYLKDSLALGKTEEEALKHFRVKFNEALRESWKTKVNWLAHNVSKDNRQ
Chain of PI3Kδ (p110δ/p85α) (P27986 whole entry partner): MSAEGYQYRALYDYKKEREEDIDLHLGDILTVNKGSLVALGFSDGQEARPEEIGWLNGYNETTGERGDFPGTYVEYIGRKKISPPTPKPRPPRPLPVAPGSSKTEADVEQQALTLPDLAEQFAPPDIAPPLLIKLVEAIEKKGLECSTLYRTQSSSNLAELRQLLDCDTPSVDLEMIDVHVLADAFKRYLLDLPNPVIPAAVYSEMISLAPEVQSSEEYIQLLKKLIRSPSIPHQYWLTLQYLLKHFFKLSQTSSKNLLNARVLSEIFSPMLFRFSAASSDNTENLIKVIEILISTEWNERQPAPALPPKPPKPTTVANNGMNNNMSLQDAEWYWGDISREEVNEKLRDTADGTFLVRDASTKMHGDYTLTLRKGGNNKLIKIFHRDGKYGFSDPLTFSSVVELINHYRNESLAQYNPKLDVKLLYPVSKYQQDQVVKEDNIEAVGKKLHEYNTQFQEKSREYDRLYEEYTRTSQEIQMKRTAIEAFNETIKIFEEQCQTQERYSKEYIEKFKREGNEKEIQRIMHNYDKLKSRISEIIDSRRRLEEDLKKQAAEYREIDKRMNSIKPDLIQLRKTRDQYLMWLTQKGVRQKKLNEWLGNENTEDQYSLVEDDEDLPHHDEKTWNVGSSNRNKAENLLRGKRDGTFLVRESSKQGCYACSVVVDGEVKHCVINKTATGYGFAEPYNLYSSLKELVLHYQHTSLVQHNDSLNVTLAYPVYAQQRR
How it was run: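 Recombinant p110δ/p85α (3.4 nM) with 20 μM PIP2, 2 μM ATP plus [γ-33P]ATP in MOPS pH 6.7, MgCl2, DTT, CHAPS, 2% DMSO; 120 min, room temperature. EDTA-quenched product captured on WGA SPA beads, scintillation counted. IC50 from percent solvent-control activity versus log inhibitor concentration.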

[4] = Homo sapiens, THP-1, serum starved THP-1 cells

Row | SMILES | IC50 [1] [nM] | IC50 ([2]; serum starved THP-1 cells) [nM] | IC50 [3] [nM] | IC50 [2, 4] [nM]
1 | CCC(C)NC(=O)c1[nH]c(-c2cc(-c3cc4c(c(S(C)(=O)=O)c3)C(=O)N([C@@H](C)C3CC3)C4)ccn2)nc1C (single isomer, unassigned) [Example 7l] | < 100 | 100 to 500 | 100 to 500 | –
2 | CCN(C)C(=O)c1nc(-c2cc(-c3cc4c(c(S(C)(=O)=O)c3)C(=O)N([C@@H](C)C3CC3)C4)ccn2)[nH]c1C [Example 7s, (S)-2-(4-(2-(1-Cyclopropylethyl)-7-(methylsulfonyl)-1-oxoisoindolin-5-yl)pyridin-2-yl)-N-ethyl-N,4-dimethyl-1H-imidazole-5-carboxamide, trifluoroacetate salt] | < 100 | – | 500 to 2000 | 500 to 1000
3 | Cc1[nH]c(-c2cc(-c3cc4c(c(S(C)(=O)=O)c3)C(=O)N([C@@H](C)C3CC3)C4)ccn2)nc1C(=O)N1CC(F)(F)C1 [Example 7d, (S)-2-(1-Cyclopropylethyl)-5-(2-(5-(3,3-difluoroazetidine-1-carbonyl)-4-methyl-1H-imidazol-2-yl)pyridin-4-yl)-7-(methylsulfonyl)isoindolin-1-one, trifluoroacetate salt] | < 100 | – | 100 to 500 | 100 to 500
4 | CNC(=O)c1nc(-c2cc(-c3cc4c(c(S(C)(=O)=O)c3)C(=O)N([C@@H](C)C3CC3)C4)ccn2)[nH]c1C [Example 7, (S)-2-(4-(2-(1-Cyclopropylethyl)-7-(methylsulfonyl)-1-oxoisoindolin-5-yl)pyridin-2-yl)-N,4-dimethyl-1H-imidazole-5-carboxamide, trifluoroacetate salt] | < 100 | – | 500 to 2000 | 100 to 500
5 | Cc1cc(-c2cc(-c3cc4c(c(S(C)(=O)=O)c3)C(=O)N([C@@H](C)C3CC3)C4)cnn2)[nH]n1 [Example 10, (S)-2-(1-Cyclopropylethyl)-5-(6-(3-methyl-1H-pyrazol-5-yl)pyridazin-4-yl)-7-(methylsulfonyl)isoindolin-1-one, trifluoroacetate salt] | 100 to 500 | – | > 2000 | > 1000
6 | Cc1nc(-c2cc(-c3cc4c(c(S(C)(=O)=O)c3)C(=O)N([C@@H](C)C3CC3)C4)ccn2)[nH]c1C(=O)NC(C)C(F)(F)F (single isomer, unassigned) [Example 7g] | < 100 | > 1000 | 100 to 500 | –
